Measurements reported in patent US9266835B2, “Quinoline derivatives useful as CB-1 inverse agonists” (JANSSEN PHARMACEUTICA NV, priority 2014, dated 2016).

Assay: Chronic DIO Mouse, second study (food intake, body weight, insulin tolerance test, glucose tolerance test, plasma insulin, fed blood glucose)
Format: in vivo
Conditions: DIO mice
Method: Male 14-20-week old diet-induced obese mice were ordered from Taconic. Mice were started on a 60% fat diet (D12492, Research Diets, New Brunswick, N.J.) at 6 weeks of age. Mice were single-housed.
Test compounds were formulated in 10% PEG400 and 10% solutol. Test compounds were administered by oral gavage (5 ml kg^−1).
The test compound was formulated in 10% PEG400 and 10% solutol. DIO mice received vehicle, test compound (@ 1, 3 and 10 mg/kg) daily for 26 days. At the end of the experiment, the mice were euthanized and blood and tissues were collected.
Body weight and food weight (food intake) were monitored daily for days 1-5 and twice weekly thereafter. Fed blood glucose was measured weekly.
An insulin tolerance test (0.5 U/kg Humulin, ip) was performed on day 19 after a 4 hour food removal. Blood glucose was measured at 0, 15, 30, 60 and 120 minutes after insulin. […] Blood glucose was measured at 0, 30, 60 and 120 minutes after glucose challenge.
Blood glucose was measured from the tail vein with a Lifescan glucometer. Plasma insulin was measured with an ELISA or HTRF kit (Cisbio). Plasma parameters were measured with an Olympus clinical chemistry analyzer.
In a second study, Compound #44 was tested according to the procedure as described above, with results as listed in Tables BIO-5A through 5G, below.

O=c1cc(NC2CCN(S(=O)(=O)C(F)(F)F)CC2)c2cc(C(c3ccc(Cl)cc3)c3ccc(Cl)cc3)ccc2[nH]1 [Compound #44, 6-(bis(4-chlorophenyl)methyl)-4-(1-(trifluoromethylsulfonyl)piperidin-4-ylamino)quinolin-2(1H)-one]
Insulin Tolerance Test, Blood Glucose AUC (0.3 mg/kg): 20233.13 mg·min/dL | Intraperitoneal Glucose Tolerance Test Blood Glucose AUC (0.3 mg/kg): 21550.00 mg·min/dL | Plasma Insulin (Std Err) (0.3 mg/kg): 3.89 (0.31) ng/mL | Intraperitoneal Glucose Tolerance Test Mean Blood Glucose (0.3 mg/kg, 0 min after glucose): 155.44 mg/dL | Insulin Tolerance Test, Mean Blood Glucose (0.3 mg/kg, 0 min after insulin): 185.00 mg/dL | Insulin Tolerance Test, Mean Blood Glucose (0.3 mg/kg, 15 min after insulin): 172.38 mg/dL | Intraperitoneal Glucose Tolerance Test Mean Blood Glucose (0.3 mg/kg, 30 min after glucose): 204.33 mg/dL | Insulin Tolerance Test, Mean Blood Glucose (0.3 mg/kg, 30 min after insulin): 164.13 mg/dL | Intraperitoneal Glucose Tolerance Test Mean Blood Glucose (0.3 mg/kg, 60 min after glucose): 187.67 mg/dL | Insulin Tolerance Test, Mean Blood Glucose (0.3 mg/kg, 60 min after insulin): 169.38 mg/dL | Intraperitoneal Glucose Tolerance Test Mean Blood Glucose (0.3 mg/kg, 120 min after glucose): 154.78 mg/dL | Insulin Tolerance Test, Mean Blood Glucose (0.3 mg/kg, 120 min after insulin): 165.13 mg/dL | Fed Blood Glucose (Std Err) (0.3 mg/kg, Day 0): 165.4 (8.16) mg/dL | Mean Body Weight (0.3 mg/kg, Day 1): 40.78 Grams | Mean Body Weight (0.3 mg/kg, Day 2): 40.87 Grams | Mean Daily Food Intake (0.3 mg/kg, Day 2): 2.51 Grams | Mean Body Weight (0.3 mg/kg, Day 3): 40.77 Grams | Mean Daily Food Intake (0.3 mg/kg, Day 3): 2.92 Grams | Mean Body Weight (0.3 mg/kg, Day 4): 40.33 Grams | Mean Daily Food Intake (0.3 mg/kg, Day 4): 2.76 Grams | Mean Body Weight (0.3 mg/kg, Day 5): 40.53 Grams | Mean Daily Food Intake (0.3 mg/kg, Day 5): 2.64 Grams | Mean Body Weight (0.3 mg/kg, Day 8): 40.87 Grams | Mean Daily Food Intake (0.3 mg/kg, Day 8): 2.80 Grams | Mean Body Weight (0.3 mg/kg, Day 10): 41.06 Grams | Mean Daily Food Intake (0.3 mg/kg, Day 10): 2.81 Grams | Mean Body Weight (0.3 mg/kg, Day 11): 41.61 Grams | Mean Daily Food Intake (0.3 mg/kg, Day 11): 2.68 Grams | Fed Blood Glucose (Std Err) (0.3 mg/kg, Day 18): 161.22 (6.29) mg/dL | Insulin Tolerance Test, Blood Glucose AUC (1 mg/kg): 21698.33 mg·min/dL | Intraperitoneal Glucose Tolerance Test Blood Glucose AUC (1 mg/kg): 22102.50 mg·min/dL | Plasma Insulin (Std Err) (1 mg/kg): 3.12 (0.64) ng/mL | Intraperitoneal Glucose Tolerance Test Mean Blood Glucose (1 mg/kg, 0 min after glucose): 156.60 mg/dL | Insulin Tolerance Test, Mean Blood Glucose (1 mg/kg, 0 min after insulin): 181.70 mg/dL | Insulin Tolerance Test, Mean Blood Glucose (1 mg/kg, 15 min after insulin): 193.89 mg/dL | Intraperitoneal Glucose Tolerance Test Mean Blood Glucose (1 mg/kg, 30 min after glucose): 225.20 mg/dL | Insulin Tolerance Test, Mean Blood Glucose (1 mg/kg, 30 min after insulin): 170.56 mg/dL | Intraperitoneal Glucose Tolerance Test Mean Blood Glucose (1 mg/kg, 60 min after glucose): 185.50 mg/dL | Insulin Tolerance Test, Mean Blood Glucose (1 mg/kg, 60 min after insulin): 182.78 mg/dL | Intraperitoneal Glucose Tolerance Test Mean Blood Glucose (1 mg/kg, 120 min after glucose): 155.00 mg/dL | Insulin Tolerance Test, Mean Blood Glucose (1 mg/kg, 120 min after insulin): 179.40 mg/dL | Fed Blood Glucose (Std Err) (1 mg/kg, Day 0): 170.80 (5.99) mg/dL | Mean Body Weight (1 mg/kg, Day 1): 40.60 Grams | Mean Body Weight (1 mg/kg, Day 2): 40.78 Grams | Mean Daily Food Intake (1 mg/kg, Day 2): 2.84 Grams | Mean Body Weight (1 mg/kg, Day 3): 40.85 Grams | Mean Daily Food Intake (1 mg/kg, Day 3): 2.79 Grams | Mean Body Weight (1 mg/kg, Day 4): 40.36 Grams | Mean Daily Food Intake (1 mg/kg, Day 4): 2.45 Grams | Mean Body Weight (1 mg/kg, Day 5): 40.42 Grams | Mean Daily Food Intake (1 mg/kg, Day 5): 2.49 Grams | Mean Body Weight (1 mg/kg, Day 8): 40.16 Grams | Mean Daily Food Intake (1 mg/kg, Day 8): 2.63 Grams | Mean Body Weight (1 mg/kg, Day 10): 40.73 Grams | Mean Daily Food Intake (1 mg/kg, Day 10): 2.67 Grams | Mean Body Weight (1 mg/kg, Day 11): 40.74 Grams | Mean Daily Food Intake (1 mg/kg, Day 11): 2.57 Grams | Fed Blood Glucose (Std Err) (1 mg/kg, Day 18): 151.20 (6.14) mg/dL | Insulin Tolerance Test, Blood Glucose AUC (3 mg/kg): 19435.83 mg·min/dL | Intraperitoneal Glucose Tolerance Test Blood Glucose AUC (3 mg/kg): 20854.50 mg·min/dL | Plasma Insulin (Std Err) (3 mg/kg): 1.74 (0.14) ng/mL | Intraperitoneal Glucose Tolerance Test Mean Blood Glucose (3 mg/kg, 0 min after glucose): 141.30 mg/dL | Insulin Tolerance Test, Mean Blood Glucose (3 mg/kg, 0 min after insulin): 161.10 mg/dL | Insulin Tolerance Test, Mean Blood Glucose (3 mg/kg, 15 min after insulin): 179.67 mg/dL | Intraperitoneal Glucose Tolerance Test Mean Blood Glucose (3 mg/kg, 30 min after glucose): 224.30 mg/dL | Insulin Tolerance Test, Mean Blood Glucose (3 mg/kg, 30 min after insulin): 156.33 mg/dL | Intraperitoneal Glucose Tolerance Test Mean Blood Glucose (3 mg/kg, 60 min after glucose): 174.20 mg/dL | Insulin Tolerance Test, Mean Blood Glucose (3 mg/kg, 60 min after insulin): 167.22 mg/dL | Intraperitoneal Glucose Tolerance Test Mean Blood Glucose (3 mg/kg, 120 min after glucose): 138.90 mg/dL | Insulin Tolerance Test, Mean Blood Glucose (3 mg/kg, 120 min after insulin): 159.78 mg/dL | Fed Blood Glucose (Std Err) (3 mg/kg, Day 0): 161.8 (6.57) mg/dL | Mean Body Weight (3 mg/kg, Day 1): 40.54 Grams | Mean Body Weight (3 mg/kg, Day 2): 40.47 Grams | Mean Daily Food Intake (3 mg/kg, Day 2): 2.50 Grams | Mean Body Weight (3 mg/kg, Day 3): 40.24 Grams | Mean Daily Food Intake (3 mg/kg, Day 3): 2.41 Grams | Mean Body Weight (3 mg/kg, Day 4): 39.39 Grams | Mean Daily Food Intake (3 mg/kg, Day 4): 2.02 Grams | Mean Body Weight (3 mg/kg, Day 5): 39.11 Grams | Mean Daily Food Intake (3 mg/kg, Day 5): 2.02 Grams | Mean Body Weight (3 mg/kg, Day 8): 38.59 Grams | Mean Daily Food Intake (3 mg/kg, Day 8): 2.13 Grams | Mean Body Weight (3 mg/kg, Day 10): 38.48 Grams | Mean Daily Food Intake (3 mg/kg, Day 10): 2.57 Grams | Mean Body Weight (3 mg/kg, Day 11): 38.13 Grams | Mean Daily Food Intake (3 mg/kg, Day 11): 2.29 Grams | Fed Blood Glucose (Std Err) (3 mg/kg, Day 18): 142.60 (4.44) mg/dL | Insulin Tolerance Test, Blood Glucose AUC (10 mg/kg): 16134.75 mg·min/dL | Intraperitoneal Glucose Tolerance Test Blood Glucose AUC (10 mg/kg): 20820.00 mg·min/dL | Plasma Insulin (Std Err) (10 mg/kg): 1.64 (0.32) ng/mL | Intraperitoneal Glucose Tolerance Test Mean Blood Glucose (10 mg/kg, 0 min after glucose): 149.00 mg/dL | Insulin Tolerance Test, Mean Blood Glucose (10 mg/kg, 0 min after insulin): 161.10 mg/dL | Insulin Tolerance Test, Mean Blood Glucose (10 mg/kg, 15 min after insulin): 143.90 mg/dL | Intraperitoneal Glucose Tolerance Test Mean Blood Glucose (10 mg/kg, 30 min after glucose): 218.50 mg/dL | Insulin Tolerance Test, Mean Blood Glucose (10 mg/kg, 30 min after insulin): 133.60 mg/dL | Intraperitoneal Glucose Tolerance Test Mean Blood Glucose (10 mg/kg, 60 min after glucose): 169.60 mg/dL | Insulin Tolerance Test, Mean Blood Glucose (10 mg/kg, 60 min after insulin): 126.20 mg/dL | Intraperitoneal Glucose Tolerance Test Mean Blood Glucose (10 mg/kg, 120 min after glucose): 146.60 mg/dL | Insulin Tolerance Test, Mean Blood Glucose (10 mg/kg, 120 min after insulin): 136.10 mg/dL | Fed Blood Glucose (Std Err) (10 mg/kg, Day 0): 167.9 (4.63) mg/dL | Mean Body Weight (10 mg/kg, Day 1): 40.51 Grams | Mean Body Weight (10 mg/kg, Day 2): 39.87 Grams | Mean Daily Food Intake (10 mg/kg, Day 2): 2.07 Grams | Mean Body Weight (10 mg/kg, Day 3): 39.16 Grams | Mean Daily Food Intake (10 mg/kg, Day 3): 1.63 Grams | Mean Body Weight (10 mg/kg, Day 4): 38.04 Grams | Mean Daily Food Intake (10 mg/kg, Day 4): 1.48 Grams | Mean Body Weight (10 mg/kg, Day 5): 37.5 Grams | Mean Daily Food Intake (10 mg/kg, Day 5): 1.38 Grams | Mean Body Weight (10 mg/kg, Day 8): 35.69 Grams | Mean Daily Food Intake (10 mg/kg, Day 8): 1.64 Grams | Mean Body Weight (10 mg/kg, Day 10): 35.08 Grams | Mean Daily Food Intake (10 mg/kg, Day 10): 2.08 Grams | Mean Body Weight (10 mg/kg, Day 11): 34.63 Grams | Mean Daily Food Intake (10 mg/kg, Day 11): 2.12 Grams | Fed Blood Glucose (Std Err) (10 mg/kg, Day 18): 144.30 (6.47) mg/dL
